The values below come from article PMC11054573, “Identification of Ureidocoumarin-Based Selective Discoidin Domain Receptor 1 (DDR1) Inhibitors via Drug Repurposing Approach, Biological Evaluation, and In Silico Studies” (Pharmaceuticals, 2024).

Like-named read-outs stand apart in the source and are kept apart here.

Assay [1] relates to MCF-7 breast cancer cells. Put plainly: NCI SRB antiproliferative assay, MCF-7. It counts as cell-based. The conditions noted are these: Homo sapiens, MCF7; for inhibition at 10 µM: read-out: % Growth inhibition at 10 µM MCF-7; for GI50: five-dose testing. As to the method: (§1) Six members, 3a, 3g–j, and 3q, out of the investigated compounds were further evaluated for their antiproliferative effects against human cancer cell lines, including leukemia (K562), colon cancer (HCT116), non-small cell lung (NSCL) cancer (A549, NCI-H23 and NCI-H460), and breast cancer (MCF-7 and T47D) cells. The tested cell lines’ choice depended on their elevated DDR1 expression levels. The cell lines were all treated with a 10 µM concentration of the tested compounds, and the results were expressed as the percentage of growth inhibition (%GI) (Table 4).
(§2) Inhibition of the tumor relevant carbonic anhydrases IX and XII may be one of these additional mechanisms.
(§3) The evaluation of the antiproliferative activities of compounds 3a, 3g–j, and 3q over a panel of DDR1-dependent cell lines was conducted employing the sensitive Sulforhodamine B (SRB) assay at the National Cancer Institute (NCI), Bethesda, Maryland, USA, following the standard protocol.

A further assay deals with T47D breast cancer cells. In words: NCI SRB antiproliferative assay, T47D. The conditions noted are these: Homo sapiens; for inhibition at 10 µM: read-out: % Growth inhibition at 10 µM T47D; for GI50: five-dose testing. It is filed as cell-based. As to the method:
as §1, §2, §3
For orientation: In SRB staining, fixed cells bind dye roughly in proportion to their protein.

The next assay deals with T1, DDR2 (Homo sapiens, UniProt Q16832).
T1 sequence (Q16832 22-855): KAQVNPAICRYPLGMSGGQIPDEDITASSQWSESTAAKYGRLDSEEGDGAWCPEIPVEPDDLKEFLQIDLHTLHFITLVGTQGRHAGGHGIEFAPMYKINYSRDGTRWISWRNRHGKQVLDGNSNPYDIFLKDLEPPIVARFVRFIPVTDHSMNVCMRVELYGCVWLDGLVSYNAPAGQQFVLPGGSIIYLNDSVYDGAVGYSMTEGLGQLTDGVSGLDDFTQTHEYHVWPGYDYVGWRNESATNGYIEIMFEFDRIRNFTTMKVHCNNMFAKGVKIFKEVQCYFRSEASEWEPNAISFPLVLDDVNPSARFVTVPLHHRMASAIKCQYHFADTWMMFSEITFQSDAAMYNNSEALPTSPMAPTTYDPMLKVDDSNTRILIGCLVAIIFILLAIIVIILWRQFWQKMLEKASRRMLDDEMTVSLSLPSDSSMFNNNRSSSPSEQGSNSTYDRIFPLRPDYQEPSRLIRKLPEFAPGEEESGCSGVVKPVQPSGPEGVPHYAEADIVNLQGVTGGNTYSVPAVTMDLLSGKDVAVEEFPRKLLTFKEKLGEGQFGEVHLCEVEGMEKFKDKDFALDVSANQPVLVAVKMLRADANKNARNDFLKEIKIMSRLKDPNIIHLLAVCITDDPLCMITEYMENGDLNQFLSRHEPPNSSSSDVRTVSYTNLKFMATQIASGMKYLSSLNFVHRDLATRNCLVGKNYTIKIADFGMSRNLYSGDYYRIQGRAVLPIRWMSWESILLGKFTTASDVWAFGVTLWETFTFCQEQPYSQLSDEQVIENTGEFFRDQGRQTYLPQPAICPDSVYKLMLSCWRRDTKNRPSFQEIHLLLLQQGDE
In words: RBC radiometric HotSpot kinase assay, DDR2. The following applies: for inhibition at 10 µM: read-out: % Inhibition at 10 μM (SEM) DDR2.

Assay [2] has as its system HCT116 colon cancer cells. Put plainly: NCI SRB antiproliferative assay, HCT116. The following applies: Homo sapiens, HCT-116; for inhibition at 10 µM: read-out: % Growth inhibition at 10 µM HCT116; for GI50: five-dose testing. It is filed as cell-based. As to the method: as §1, §2, §3
The subject of assay [3] is A549 non-small cell lung cancer cells. Put plainly: NCI SRB antiproliferative assay, A549. It counts as cell-based. The following applies: Homo sapiens; for inhibition at 10 µM: read-out: % Growth inhibition at 10 µM A549; for GI50: five-dose testing. The procedure: as §1, §2, §3
Assay [4] has as its system NCI-H460 non-small cell lung cancer cells. Put plainly: NCI SRB antiproliferative assay, NCI-H460. The conditions noted are these: Homo sapiens; for inhibition at 10 µM: read-out: % Growth inhibition at 10 µM NCI-H460; for GI50: five-dose testing. It is filed as cell-based. As to the method: as §1, §2, §3
For assay [5], the target named is T2, DDR1 (Homo sapiens, UniProt Q08345). Put plainly: RBC radiometric HotSpot kinase assay, DDR1. The following applies: for SI: Selectivity index (IC50 DDR2/IC50 DDR1): DDR1 over DDR2; for inhibition at 10 µM: read-out: % Inhibition at 10 μM (SEM) DDR1.
T2 sequence (Q08345 19-913): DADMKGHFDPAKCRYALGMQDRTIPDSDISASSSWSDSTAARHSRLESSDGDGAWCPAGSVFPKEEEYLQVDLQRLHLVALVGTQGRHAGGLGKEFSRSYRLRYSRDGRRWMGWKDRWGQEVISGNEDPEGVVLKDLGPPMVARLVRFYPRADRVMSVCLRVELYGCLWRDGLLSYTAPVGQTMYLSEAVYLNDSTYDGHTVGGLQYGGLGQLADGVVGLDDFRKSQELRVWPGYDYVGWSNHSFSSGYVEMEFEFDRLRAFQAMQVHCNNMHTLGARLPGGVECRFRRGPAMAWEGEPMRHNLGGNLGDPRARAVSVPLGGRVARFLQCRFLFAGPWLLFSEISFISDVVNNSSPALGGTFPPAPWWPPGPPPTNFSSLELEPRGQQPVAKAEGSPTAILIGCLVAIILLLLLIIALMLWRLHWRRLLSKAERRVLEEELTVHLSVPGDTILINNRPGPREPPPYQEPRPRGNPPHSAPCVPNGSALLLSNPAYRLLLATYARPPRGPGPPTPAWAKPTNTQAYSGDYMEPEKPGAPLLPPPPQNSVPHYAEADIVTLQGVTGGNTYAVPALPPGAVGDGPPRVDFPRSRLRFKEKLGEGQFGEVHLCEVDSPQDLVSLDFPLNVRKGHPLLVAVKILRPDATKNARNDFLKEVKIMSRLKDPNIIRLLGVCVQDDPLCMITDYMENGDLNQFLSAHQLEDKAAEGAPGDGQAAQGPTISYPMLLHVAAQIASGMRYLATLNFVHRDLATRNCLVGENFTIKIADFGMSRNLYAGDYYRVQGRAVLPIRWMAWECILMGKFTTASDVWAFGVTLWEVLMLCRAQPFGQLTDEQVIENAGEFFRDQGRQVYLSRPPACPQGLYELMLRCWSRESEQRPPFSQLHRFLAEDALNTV
Protocol: (§4) All compounds in this study were tested against DDR1 and DDR2 at a 10 µM dose at Reaction Biology Corporation (RBC, Malvern, PA, USA) employing the radiometric HotSpot Kinase assay protocol (Table 1).
Assay [6] relates to NCI-H23 non-small cell lung cancer cells. In words: NCI SRB antiproliferative assay, NCI-H23. It is filed as cell-based. The conditions noted are these: Homo sapiens; for inhibition at 10 µM: read-out: % Growth inhibition at 10 µM NCI-H23; for GI50: five-dose testing. As to the method: as §1, §2, §3
A further assay relates to K562 leukemia cells. In words: NCI SRB antiproliferative assay, K562. It counts as cell-based. The conditions noted are these: Homo sapiens; for inhibition at 10 µM: read-out: % Growth inhibition at 10 µM K562; for GI50: five-dose testing. As to the method: as §1, §2, §3
For assay [7], the system named is DDR1-dependent cancer cell lines. Put plainly: NCI SRB antiproliferative assay, whole panel of DDR1-dependent cell lines. It counts as cell-based, human. The conditions noted are these: span over the seven cell lines. The procedure: as §1, §2, §3
The target in assay [8] is T2, DDR1. On the set-up: purchased Reaction Biology Corporation (RBC, Malvern, PA, USA). The conditions noted are these: cited from earlier work.

Protocol for DDR2: as §4

As for `O=C(Nc1cccc(C(F)(F)F)c1)Nc1ccc2oc(=O)ccc2c1` [Compound 3a], the inhibition at 10 µM was found to be 29.2% in assay [1]; 24.6% in the assay with T47D breast cancer cells; 83.6% at DDR2; 20.9% in assay [2]; 10.4% in assay [3]; 15.8% in assay [4]. The inhibition at 10 µM is 92.7% at DDR1 [5], 13.2% in [6] and 33.2% in the assay on K562 leukemia cells. For the same molecule, the results for the IC50 against DDR2 and on DDR1 [5] were 2390 nM and 321 nM, respectively. Besides, the “SI: Selectivity index (IC50 DDR2/IC50 DDR1)” value (“SI: Selectivity index” for short) on DDR1 [5] is on record as 7.5.
Consider `O=C(Nc1ccc(C(F)(F)F)cc1)Nc1ccc2oc(=O)ccc2c1` [Compound 3b], for which the inhibition at 10 µM at DDR2 was determined as 11.7%; at DDR1 [5], 24.5%.
On to `O=C(Nc1ccc(F)cc1)Nc1ccc2oc(=O)ccc2c1` [Compound 3c], for which the inhibition at 10 µM at DDR2 came out at 15.9%; on DDR1 [5] it was 25.6%.
The corresponding values for `O=C(Nc1ccc(Br)cc1)Nc1ccc2oc(=O)ccc2c1` [Compound 3d] are 7.53% and 23.1%.
The corresponding values for `CCCCc1ccc(NC(=O)Nc2ccc3oc(=O)ccc3c2)cc1` [Compound 3e] are 3.07% and 15.4%.
As for `CCCCOc1ccc(NC(=O)Nc2ccc3oc(=O)ccc3c2)cc1` [Compound 3f], the inhibition at 10 µM at DDR2 was determined as 5.52%; at DDR1 [5], 10.6%.
For the molecule `O=C(Nc1ccc(Cl)c(C(F)(F)F)c1)Nc1ccc2oc(=O)ccc2c1` [Compound 3g], the inhibition at 10 µM turned out to be 88.1% in assay [1]; 91.3% in the assay on T47D breast cancer cells; 39.3% at DDR2; 84.3% in [2]; 60.1% in [3]; 81.9% in assay [4]. Besides, the values for the inhibition at 10 µM (at DDR1 [5]; in assay [6]; with K562 leukemia cells) were 49%, 95.2% and 80.8%, respectively. Besides, the IC50 against DDR2 is more than 10000 nM; at DDR1 [5] it was 2900 nM. Further, at DDR1 [5], the “SI: Selectivity index” value is listed as more than 3.4.
Turning to `O=C(Nc1ccc(F)c(Cl)c1)Nc1ccc2oc(=O)ccc2c1` [Compound 3h], the inhibition at 10 µM in assay [1] stood at 25.4%; in the assay on T47D breast cancer cells it was 24.6%; on DDR2, 27.5%; in assay [2], 14.1%; in assay [3] it was 15.1%; in assay [4] it was 20.6%. The values for the inhibition at 10 µM (at DDR1 [5]; in assay [6]; in the assay with K562 leukemia cells) were 57.2%, 14.3% and 32.2%, respectively. The results for the IC50 at DDR2 and at DDR1 [5] were more than 10000 nM and 1660 nM, respectively. Further, in [7] (10 µM), the “%GI over all tested cell lines” value is recorded as less than 35%. Also, at DDR1 [5], the “SI: Selectivity index” value was more than 6.0.
`O=C(Nc1cc(C(F)(F)F)cc(C(F)(F)F)c1)Nc1ccc2oc(=O)ccc2c1` [Compound 3i]: the GI50 in assay [1] is 1940 nM; in the assay on T47D breast cancer cells it was 1340 nM; in [2] it was 732 nM; in assay [3], 1590 nM; in [4] it was 690 nM; in [6], 940 nM. The molecule also came in with a GI50 in the assay with K562 leukemia cells of 550 nM. Moreover, the inhibition at 10 µM turned out to be 96.2% in assay [1]; 95.2% in the assay with T47D breast cancer cells; 67.3% at DDR2; 97.9% in assay [2]; 84.8% in [3]; 93.6% in [4]. Also, the results for the inhibition at 10 µM (at DDR1 [5]; in assay [6]; with K562 leukemia cells) were 77.1%, 100% and 86.3%, respectively. For the same molecule, the results for the IC50 against DDR2 and at DDR1 [5] were 19000 nM and 1530 nM, respectively. For the same molecule, on DDR1 [5], the “SI: Selectivity index” value is recorded as 12.4.
As for `O=C(Nc1cc(Cl)cc(Cl)c1)Nc1ccc2oc(=O)ccc2c1` [Compound 3j], the GI50 in [1] was 2280 nM; in the assay with T47D breast cancer cells it was 1930 nM; in assay [2] it was 2310 nM; in assay [3] it was 2900 nM; in [4], 2270 nM; in assay [7] (Homo sapiens, read-out: GI50 over all tested cell lines), 1930 to 2900 nM. The GI50 came to 2670 nM in assay [6] and 2340 nM with K562 leukemia cells. The inhibition at 10 µM came to 94.5% in assay [1]; 96.5% with T47D breast cancer cells; 23.3% on DDR2; 98.6% in assay [2]; 83.8% in assay [3]; 98.8% in assay [4]. Also, the inhibition at 10 µM at DDR1 [5] came to 48.5%; in assay [6], 106%; in the assay with K562 leukemia cells, 84.6%. In addition, the IC50 on DDR2 was more than 10000 nM; on DDR1 [5], 2520 nM. The “SI: Selectivity index” value on DDR1 [5] is reported as more than 4.0.
`Cc1cc(C)cc(NC(=O)Nc2ccc3oc(=O)ccc3c2)c1` [Compound 3k]: the inhibition at 10 µM at DDR2 came to 17.3%; at DDR1 [5], 33.8%.
For `O=C(Nc1ccc2oc(=O)ccc2c1)Nc1ccc(Cl)cc1Cl` [Compound 3l] the same measures were 17.1% and 19%.
As to `O=C(Nc1ccc2oc(=O)ccc2c1)Nc1ccc(F)cc1F` [Compound 3m], the inhibition at 10 µM on DDR2 turned out to be 0.78%; at DDR1 [5], 5.83%.
Consider `Cc1cc(Cl)ccc1NC(=O)Nc1ccc2oc(=O)ccc2c1` [Compound 3n], for which the inhibition at 10 µM is 8.02% on DDR2 and 10.7% at DDR1 [5].
As for `Cc1cccc(Cl)c1NC(=O)Nc1ccc2oc(=O)ccc2c1` [Compound 3o], the results for the inhibition at 10 µM on DDR2 and at DDR1 [5] were -1.4% and 15.7%, respectively.
As for `O=C(Nc1ccc2oc(=O)ccc2c1)Nc1c(Br)cc(F)cc1Br` [Compound 3p], the figures for the inhibition at 10 µM on DDR2 and on DDR1 [5] were 17.1% and 15%, respectively.
On to `O=C(Nc1ccc2oc(=O)ccc2c1)c1ccc(Cl)c(C(F)(F)F)c1` [Compound 4a], for which the inhibition at 10 µM on DDR2 stood at 3.77%; at DDR1 [5], 5.82%.
As for `O=C(Nc1ccc2oc(=O)ccc2c1)c1cc(C(F)(F)F)cc(C(F)(F)F)c1` [Compound 4b], the inhibition at 10 µM turned out to be 6.06% on DDR2 and 12.6% on DDR1 [5].
The corresponding values for `O=C(Nc1ccc2oc(=O)ccc2c1)c1cc(F)cc(F)c1` [Compound 4c] are 17% and 22.4%.
On to `O=C(Nc1cccc(Cl)c1)Nc1cc2ncncc2cc1OCc1cccc(F)c1` [KST9046], for which the IC50 on DDR1 [8] was 4380 nM.
Take `CCN1CCN(Cc2ccc(NC(=O)Nc3nc4ccc(Oc5ccnc(C(=O)NC)c5)cc4s3)cc2C(F)(F)F)CC1` [KST016366]: on DDR1 [8], the IC50 was 26.5 nM.
`Cn1ccc(-c2cncc(CNc3cc(C(=O)Nc4cccc(OC(F)(F)F)c4)ccc3F)c2)n1` [VU6015929, reference compound] registered an IC50 against DDR2 of 1.55 nM.

A word on the inhibition: it is the relative decrease from the control value, in per cent. One may read the IC50 as the point on the concentration scale where inhibition reaches its midpoint. By GI50 is commonly meant the concentration giving 50% growth inhibition.
